PMC8907375, “Arylated analogues of cypronazole: fungicidal effect and activity on human fibroblasts. Docking analysis and molecular dynamics simulations” (Natural Products and Bioprospecting, 2022)
Converted amounts (≈) assume the structure as drawn. Where two headings read alike, the source gives them in different places.

What was measured:
[1] = test system: Aspergillus fumigatus (ATTC 26934); experiment: In vitro antifungal activity, broth microdilution (MIC100); assay type: cell-based; settings: A. fumigatus, 30 °C, 48 h, total growth inhibition; for Minimum inhibitory concentration (MIC100): Aspergillus fumigatus, read-out: Fungicidal activity MIC100, AF
Description: (§1) Fungal growth was assessed at six concentrations (3.1–100 μg/mL), using enriched Czapek broth in the presence of triazole 1-8 (Fig. 2). Each treatment was carried out in triplicate. The Minimum Inhibitory Concentration (MIC100) was determined and was defined as the minimum concentration required to inhibit the complete fungal growth inhibition under the conditions of the assay. Triadimefon (TDM) and cyproconazole (CPZ) were used as positive control. In order to evaluate the efficacy of the new compounds to control fungi affecting vineyards, imperfect fungi isolated from infected grapes from the province of San Juan in Argentina were employed. Significant differences were determined by t-Student hypothesis test p, at 95% confidence. In general, moderate to good activity was observed compared to the reference compounds as well as some selectivity against microorganisms.
(§2) The imperfect fungi used for the assays included Botrytis cinerea isolated from grapevine samples, Aspergillus fumigatus (ATTC 26934), A. niger (ATCC 9029), A. ustus (PN-S4), A. japonicus (M15C), A. terreus (M16C) and Fusarium oxysporum (M15-Pa) isolated from soil samples from the province of San Juan, Argentina. The microorganisms were grown on Czapek-yeast extract agar (CYA) prepared with yeast extract, K2HPO4, saccharose, agar, distilled water and enriched with a solution of mineral salts (NaNO3, KCl, MgSO4.7H2O and FeSO4.7 H2O). Inocula were adjusted to 1–5 × 10^4 colony forming units (CFU/ mL).
(§3) The minimum inhibitory concentration (MIC) of each compound was evaluated using broth microdilution techniques in 96-well microtiter plates according to the guidelines of the National Committee for Clinical Laboratory Standards for filamentous fungi M 38 A. The starting inoculum was 1–5 × 10^4 CFU/mL in accordance with the Clinical and Laboratory Standards Institute (CLSI, formerly the National Committee for Clinical Laboratory Standards [NCCLS]) (M27-A3 document for yeasts, and M38-A2 document for filamentous fungi).
(§4) Microtiter plates were incubated at 30 °C for Aspergillus and Fusarium, and 22 °C for B. cinerea in a moist and dark chamber. MIC values were recorded after 48 h for Aspergillus and Fusarium spp., and after 72 h for B. cinerea, according to the fungal growth control. TDM and CPZ were used as positive controls (12.5–50 μg/mL). Stock solutions were two-fold diluted with RPMI from 1000 to 0.98 μg/mL (final volume equal to 100 μL), and a final DMSO concentration ≤ 1%. An inoculum suspension (100 μL) was added to each well with the exception of the sterility control. Endpoints were defined as the lowest compound concentration resulting in total growth inhibition (MIC100) compared to the growth in control wells. MICs values ≤ 50 μg/mL were considered of interest. The assay was carried out in triplicate.

[2] = test system: Fusarium oxysporum (M15-Pa); experiment: as above; assay type: cell-based; settings: 30 °C, 48 h, total growth inhibition; for MIC100 (minimum concentration for complete growth inhibition): Fusarium oxysporum, F. oxysporum, read-out: Fungicidal activity MIC100, F
Description: as §1, §2, §3, §4

A. japonicus (M15C) = experiment: as above; assay type: cell-based, Aspergillus japonicus; settings: 48 h; for Fungicidal activity MIC100, AJ: A. japonicus, 30 °C, total growth inhibition; for MIC: read-out: Fungicidal activity MIC100, AJ
Description: as §1, §2, §3, §4

A. niger (ATCC 9029) = experiment: as above; assay type: cell-based, Aspergillus niger; settings: 48 h, total growth inhibition; for Fungicidal activity MIC100, AN: 30 °C; for MIC100 (complete growth inhibition): Aspergillus niger, ATCC9029, 30 °C, read-out: Fungicidal activity MIC100, AN
Description: as §1, §2, §3, §4

A. terreus (M16C) = experiment: as above; assay type: cell-based, Aspergillus terreus; settings: 48 h; for MIC100 (complete growth inhibition): Aspergillus terreus, read-out: Fungicidal activity MIC100, AT, A. terreus, 30 °C, total growth inhibition
Description: as §1, §2, §3, §4

A. ustus (PN-S4) = experiment: as above; assay type: cell-based, Aspergillus ustus; settings: 30 °C, 48 h, total growth inhibition; for MIC100 (complete growth inhibition): Aspergillus ustus, read-out: Fungicidal activity MIC100, AU
Description: as §1, §2, §3, §4

[3] = test system: human lung fibroblasts MRC-5; experiment: Cytotoxicity, neutral red uptake assay; assay type: cell-based
Description: (§5) The cytotoxic effect of the compounds, expressed as cell viability, was assessed on a permanent fibroblast cell line derived from human lung (MRC-5) (ATCC CCL-171). MRC-5 fibroblasts were grown as monolayers in minimum essential Eagle medium (MEM) with Earle’s salts, 2 mM l-glutamine and 2.2 g/L sodium bicarbonate, supplemented with 10% heat inactivated fetal bovine serum (FBS), 100 IU/mL penicillin and 100 µg/mL streptomycin in a humidified incubator with 5% CO2 in the air at 37 °C. Cell passage was maintained between 10 and 16. The medium was changed every 2 days.
(§6) Confluent cultures of MRC-5 fibroblasts were treated with medium containing the compounds at concentrations ranging from 0 to 1000 µM. For comparison purposes, the commercial antifungals CPZ and TDM were used as references, the products were first dissolved in DMSO and then in MEM, supplemented with 2% FBS. The final content of DMSO in the test medium and controls was 1%. Cells were exposed for 24 h to the test medium with or without the compound (control). Each concentration was tested in quadruplicate together with the control, and repeated three times in separate experiments. At the end of the incubation, the neutral red uptake (NRU) assay was carried out. To calculate the IC50 values (concentration that produces a 50% inhibitory effect on the evaluated parameter), the results were transformed to percentage of controls and the IC50 values were graphically obtained from the dose–response curves.

[4] = test system: B. cinerea (isolated from grapes); experiment: In vitro antifungal activity, broth microdilution (MIC100); assay type: cell-based, Botrytis cinerea; settings: for Fungicidal activity MIC100, BC / MIC100 (complete growth inhibition): 22 °C, total growth inhibition
Description: as §1, §2, §3, §4

[5] = Cytotoxicity, neutral red uptake assay; assay type: cell-based, human; settings: human
Description: as §5, §6

[6] = Botrytis cinerea, B. cinerea, 72 h, read-out: Fungicidal activity MIC100, BC
[7] = Botrytis cinerea, B. cinerea, molar conversion of the µg/mL value, read-out: MIC100 against B. cinerea expressed

Row | Compound | Fungicidal activity MIC100, AF [1] | Fungicidal activity MIC100, F [2] | Fungicidal activity MIC100, AJ (A. japonicus (M15C)) | Fungicidal activity MIC100, AN (A. niger (ATCC 9029)) | Fungicidal activity MIC100, AT (A. terreus (M16C); A. terreus, 30 °C, total growth inhibition) | Fungicidal activity MIC100, AU (A. ustus (PN-S4)) | IC50 [3] | Fungicidal activity MIC100, BC ([4]; B. cinerea, 72 h) | MFC ([4]; Botrytis cinerea, 72 h, read-out: Fungicidal activity MIC100, BC) | MIC ([4]; Botrytis cinerea, read-out: MIC100 against B. cinerea expressed in µM) | Minimum inhibitory concentration (MIC100) [1] | MIC100 (minimum concentration for complete growth inhibition) [2] | MIC (A. japonicus (M15C)) | MIC100 (complete growth inhibition) (A. niger (ATCC 9029)) | MIC100 (complete growth inhibition) (A. terreus (M16C)) | MIC100 (complete growth inhibition) (A. ustus (PN-S4)) | IC50 at 24 h [5] | MIC100 (complete growth inhibition) [4, 6] | MIC [4, 7] | IC50 at 24 h ([5]; MRC-5 fibroblasts, 24 h exposure, neutral red uptake, ± SD, read-out: Cytotoxicity IC50)
1 | c1nc[nH]n1 [Compound 8, 1H-1,2,4-Triazole] | ≥ 100 µg/mL | ≥ 100 µg/mL | ≥ 100 µg/mL | ≥ 100 µg/mL | ≥ 100 µg/mL | ≥ 100 µg/mL | > 1000 µM |  |  |  |  |  |  |  |  |  |  |  |  | 
2 | CC(C)(C)C(=O)C(Oc1ccc(-c2ccccc2)cc1)n1cncn1 (centres unmarked) [Compound 1, 1-(Biphenyl-4-yloxy)-3,3-dimethyl-1-(1H-1,2,4-triazol-1-yl)butan-2-one] |  |  |  |  |  |  |  | 10 ± 0.7 µg/mL | 10 µg/mL (≈ 29.8 µM) | 29.8 µM (≈ 10 µg/mL) | 80 ± 2.5 µg/mL (≈ 239 µM) | ≥ 100 µg/mL | ≥ 100 µg/mL | 50 ± 1.7 µg/mL (≈ 149 µM) | ≥ 100 µg/mL | 50 ± 1.2 µg/mL (≈ 149 µM) | 389 ± 23.5 µM |  |  | 
3 | CC(C)(C)C(=O)C(Oc1ccc(Cl)cc1)n1cncn1 (centres unmarked) [TDM, 1-(4-chlorofenoxy)-3,3-dimethyl-1-(1H-1,2,4-triazol-1-yl)butan-2-one, reference compound] | 80 ± 2.4 µg/mL |  |  |  |  |  |  | 80 ± 2.2 µg/mL |  |  | 80 µg/mL (≈ 272 µM) | ≥ 100 µg/mL | ≥ 100 µg/mL | ≥ 100 µg/mL | > 100 µg/mL | 80 ± 2.6 µg/mL (≈ 272 µM) |  | 80 µg/mL (≈ 272 µM) | 274 µM (≈ 80.5 µg/mL) | 248 ± 12.4 µM
4 | CC(C)(C)C(=O)C(Oc1ccc(-c2ccc(F)cc2)cc1)n1cncn1 (centres unmarked) [Compound 2] |  |  |  |  |  |  |  |  |  |  | ≥ 100 µg/mL | ≥ 100 µg/mL | ≥ 100 µg/mL | ≥ 100 µg/mL | ≥ 100 µg/mL | ≥ 100 µg/mL | 90 ± 4.3 µM | ≥ 100 µg/mL |  | 
5 | CC(C1CC1)C(O)(Cn1cncn1)c1ccc(-c2ccc3ccccc3c2)cc1 (centres unmarked) [Compound 7] |  |  |  |  |  | 6.25 ± 0.3 µg/mL |  |  |  |  | ≥ 100 µg/mL | ≥ 100 µg/mL | ≥ 100 µg/mL | ≥ 100 µg/mL | ≥ 100 µg/mL | 6.25 µg/mL (≈ 16.3 µM) | 49.1 ± 3.4 µM | ≥ 100 µg/mL |  | 
6 | CC(C1CC1)C(O)(Cn1cncn1)c1ccc(-c2ccc([N+](=O)[O-])cc2)cc1 (centres unmarked) [Compound 6, 3-Cyclopropyl-2-(4'-nitro-[1,1'-biphenyl]-4-yl)-1-(1H-1,2,4-triazol-1-yl)butan-2-ol] |  |  |  |  |  |  |  |  |  |  | ≥ 100 µg/mL | ≥ 100 µg/mL | ≥ 100 µg/mL | ≥ 100 µg/mL | ≥ 100 µg/mL | ≥ 100 µg/mL |  | ≥ 100 µg/mL |  | 
7 | C[C@@H](c1ncncc1F)[C@](O)(Cn1cncn1)c1ccc(F)cc1F [VOR, voriconazole, reference compound] |  |  |  |  |  | 1.25 ± 0.5 µg/mL |  |  |  |  | < 0.75 µg/mL | < 0.75 µg/mL | < 0.75 µg/mL | 1.25 ± 0.4 µg/mL (≈ 3.58 µM) | 6.25 ± 0.8 µg/mL (≈ 17.9 µM) | 1.25 µg/mL (≈ 3.58 µM) |  | < 0.75 µg/mL |  | 
8 | CC(C1CC1)C(O)(Cn1cncn1)c1ccc(-c2ccccc2)cc1 (centres unmarked) [Compound 3, 2-(Biphenyl-4-yl)-3-cyclopropyl-1-(1H-1,2,4-triazol-1-yl)butan-2-ol] |  | 5 ± 0.4 µg/mL | 12.5 ± 0.8 µg/mL | 3.12 ± 0.3 µg/mL |  | 6.25 ± 0.3 µg/mL |  | 25 ± 1.4 µg/mL |  |  | ≥ 100 µg/mL | 5 µg/mL | 12.5 µg/mL (≈ 37.5 µM) | 3.12 µg/mL (≈ 9.36 µM) | ≥ 100 µg/mL | 6.25 µg/mL (≈ 18.7 µM) | 118 ± 9.4 µM | 25 µg/mL (≈ 75 µM) | 75 µM (≈ 25 µg/mL) | 
9 | COc1ccc(-c2ccc(C(O)(Cn3cncn3)C(C)C3CC3)cc2)cc1 (centres unmarked) [Compound 5, 3-Cyclopropyl-2-(4'-methoxy-[1,1'-biphenyl]-4-yl)-1-(1H-1,2,4-triazol-1-yl)butan-2-ol] |  |  |  | 6.25 ± 0.4 µg/mL |  |  |  |  |  |  | ≥ 100 µg/mL | ≥ 100 µg/mL | ≥ 100 µg/mL | 6.25 µg/mL (≈ 17.2 µM) | ≥ 100 µg/mL | ≥ 100 µg/mL | 732 ± 29.3 µM | ≥ 100 µg/mL |  | 
